Test results: patent US11505575B2, “Cyclic polypeptides for PCSK9 inhibition” (Merck Sharp & Dohme LLC, priority 2018, dated 2022)
*1 amine or outer side, *2 acyl side, *3 side chain or, on linkers, in order; H or OH if unused. Where a SMILES comes first, the peptide text is derived from it. Bridges are numbered along the chain shown (N, C = ends). [ ]: non-standard residue; d: D form. The star is where a group is joined. 3Aminoazetidine3carboxyl = O=C(C1(N[*:1])CN([*:3])C1)[*:2]; Phe(4-guanidino) = N=C(N)Nc1ccc(C[C@H](N)C(=O)O)cc1; Trp(5-F) = N[C@@H](Cc1c[nH]c2ccc(F)cc12)C(=O)O; Trp(7-aza) = N[C@@H](Cc1c[nH]c2ncccc12)C(=O)O; mXylylene(5-F) = Fc1cc(C[*:1])cc(C[*:2])c1; Pro(4,4-F2) = O=C(O)[C@@H]1CC(F)(F)CN1; mXylylene = c1cc(C[*:1])cc(C[*:2])c1; Myristoyl = CCCCCCCCCCCCCC(=O)*; aThr = C[C@H](O)[C@H](N)C(=O)O; αMeOrn = C[C@](N)(CCCN)C(=O)O; Agp = N=C(N)NC[C@H](N)C(=O)O; Chg = N[C@H](C(=O)O)C1CCCCC1; Tle = CC(C)(C)[C@H](N)C(=O)O; αMeV = CC(C)[C@](C)(N)C(=O)O; hLys = NCCCCC[C@H](N)C(=O)O; hSer = N[C@@H](CCO)C(=O)O; Nva = CCC[C@H](N)C(=O)O; Aib = CC(C)(N)C(=O)O; Mpa = O=C(O)CCS

Key:
PCSK9 = target: T1, PCSK9 (Homo sapiens, UniProt Q8NBP7); test: PCSK9 Alexa FRET Standard assay (displacement of AlexaFluor647-tagged cyclic peptide Reagent A); format: binding; conditions: 0.5 nM PCSK9, 20 nM AF cyclic peptide Reagent A
T1 construct: biotin (biotinylated)
Experimental: A solution containing 1 nM biotinylated PCSK9+2.5 nM Lance Streptavidin Europium (Strep-Eu) was made in 50 mM HEPES pH 7.4, 0.15 M NaCl, 5 mM CaCl2, 0.01% BSA, and 0.01% Surfactant P20. A separate solution containing 40 nM of the AlexaFluor tagged cyclic peptide was made in the same buffer system. An Echo was used to transfer 0.750 ul of compound to an assay plate followed by the addition of 15 ul of PCSK9+Stept-Eu and 15 ul of AF peptide. The final assay volume was 30.750 ul containing 0.5 nM PCSK9, 1.25 nM Strep-Eu, and 20 nM AF cyclic peptide. The reaction was incubated at room temperature for at least two hours prior to fluorescence measurements using an Envision Multilabel Reader. IC50 values were determined by fitting data to a sigmoidal dose-response curve using nonlinear regression. Ki was then calculated from the IC50 and the KD of AF cyclic peptide. Counts (B-counts) of the europium-labeled PCSK9 were followed to observe if compounds were […]. A fall off of the B-counts likely indicated a false positive of inhibition. Data from this procedure was reported as “A=‘numerical value’ (nanomolar)”

[1] = target: human PCSK9 / human LDLR EGFa domain interaction (Homo sapiens, UniProt Q8NBP7); test: TR-FRET assay of inhibition of the PCSK9-LDLR protein-protein interaction; format: binding; conditions: 20 nM biotinylated human PCSK9 + 20 nM his-tagged human LDLR EGFa domain, 2 hours room temperature
Experimental: A time-resolved fluorescence resonance energy (TR-FRET) assay was used to measure inhibition of the PCSK9-LDLR protein-protein interaction. Briefly, 20 nM avitag-biotinylated human PCSK9 was incubated with 20 nM his-tagged human LDLR EGFa domain in the presence of 5 nM LANCE Ulight Streptavidin (Perkin Elmer) and 5 nM europium-Anti-6×His (Perkin Elmer) for 2 hours covered at room temperature in buffer containing 50 mM HEPES, 150 mM NaCl, 5 mM CaCl2, 0.01% BSA and 0.01% Surfactant P20. Compounds were tested in dose-response and concentrations giving half-maximal inhibition calculated using a 4-parameter fit equation.

Sequence of human PCSK9 / human LDLR EGFa domain interaction (Q8NBP7 153-692): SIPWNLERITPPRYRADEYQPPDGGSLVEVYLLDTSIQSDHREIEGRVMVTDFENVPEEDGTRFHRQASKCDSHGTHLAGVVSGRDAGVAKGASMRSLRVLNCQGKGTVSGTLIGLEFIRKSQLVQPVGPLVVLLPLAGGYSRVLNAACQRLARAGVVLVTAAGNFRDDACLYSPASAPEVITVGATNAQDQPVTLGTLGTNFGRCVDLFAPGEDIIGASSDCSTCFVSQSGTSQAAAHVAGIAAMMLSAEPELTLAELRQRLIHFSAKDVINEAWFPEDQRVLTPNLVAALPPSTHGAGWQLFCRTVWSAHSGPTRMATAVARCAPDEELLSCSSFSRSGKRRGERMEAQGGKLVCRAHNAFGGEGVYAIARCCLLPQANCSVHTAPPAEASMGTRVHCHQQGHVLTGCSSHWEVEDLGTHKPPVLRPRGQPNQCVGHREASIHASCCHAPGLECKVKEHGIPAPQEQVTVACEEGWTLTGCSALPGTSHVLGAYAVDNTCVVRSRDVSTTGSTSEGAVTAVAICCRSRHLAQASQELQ
Sequence of human PCSK9 / human LDLR EGFa domain interaction (Q8NBP7 31-152 partner limits assumed): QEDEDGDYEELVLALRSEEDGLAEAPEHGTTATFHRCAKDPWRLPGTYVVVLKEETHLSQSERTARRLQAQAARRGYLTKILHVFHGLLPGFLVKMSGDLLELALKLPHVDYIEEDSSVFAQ
T1 sequence (Q8NBP7 153-692): as the sequence (Q8NBP7 153-692) above

| SMILES | IC50 (PCSK9) [nM] | IC50 [1] [nM] |
| --- | --- | --- |
| CC(=O)N[C@H]1CSCc2cccc(c2)CSC[C@H](C(N)=O)NC(=O)[C@H]([C@@H](C)O)NC(=O)[C@](C)(C(C)C)NC(=O)[C@H](Cc2ccc(O)cc2)NC(=O)[C@H](C)NC(=O)C(C)(C)NC(=O)[C@H](Cc2c[nH]c3ncccc23)NC(=O)[C@H]([C@H](C)O)NC(=O)[C@@H]2CCCN2C(=O)[C@H](Cc2ccc(O)cc2)NC(=O)[C@H](C(C)(C)C)NC1=O [Compound 029] (Ac-C[Tle]YP[aThr][Trp(7-aza)][Aib]AY[αMeV]T[dC]-NH2; linker 1-12 via mXylylene) | 100 to 1000 |  |
| CC(=O)N[C@H]1CSCc2cccc(c2)CSC[C@H](C(N)=O)NC(=O)[C@H]([C@@H](C)O)NC(=O)[C@](C)(C(C)C)NC(=O)[C@H](Cc2ccc(O)cc2)NC(=O)[C@H](C)NC(=O)C2(CNC2)NC(=O)[C@H](Cc2c[nH]c3ncccc23)NC(=O)[C@H]([C@@H](C)O)NC(=O)[C@@H]2CCCN2C(=O)[C@H](Cc2ccc(O)cc2)NC(=O)[C@H](C(C)(C)C)NC1=O [Compound 038] (Ac-C[Tle]YPT[Trp(7-aza)][3Aminoazetidine3carboxyl]AY[αMeV]T[dC]-NH2; linker 1-12 via mXylylene) | 1 to 100 |  |
| CC(=O)N[C@H]1CSCc2cc(F)cc(c2)CSC[C@@H](C(N)=O)NC(=O)[C@H]([C@@H](C)O)NC(=O)[C@](C)(C(C)C)NC(=O)[C@H](Cc2ccc(O)cc2)NC(=O)[C@H](C)NC(=O)C(C)(C)NC(=O)[C@H](Cc2c[nH]c3ncccc23)NC(=O)[C@H]([C@@H](C)O)NC(=O)[C@@H]2CCCN2C(=O)[C@H](Cc2ccc(O)cc2)NC(=O)[C@H](C(C)(C)C)NC1=O [Compound 026] (Ac-C[Tle]YPT[Trp(7-aza)][Aib]AY[αMeV]TC-NH2; linker 1-12 via mXylylene(5-F)) | 1 to 100 |  |
| CCCCCCCCCCCCCC(=O)NCCCC[C@H](NC(C)=O)C(=O)N[C@@H](CCC)C(=O)N[C@H]1CSCc2cccc(c2)CSC[C@@H](C(N)=O)NC(=O)[C@H]([C@@H](C)O)NC(=O)[C@H](C2CCCCC2)NC(=O)[C@H](Cc2c[nH]c3ncccc23)NC(=O)[C@H](Cc2c[nH]cn2)NC(=O)[C@H](CCC(=O)O)NC(=O)[C@H](Cc2c[nH]c3ncccc23)NC(=O)[C@H]([C@@H](C)O)NC(=O)[C@@H]2CCCN2C(=O)[C@H](Cc2ccc(O)cc2)NC(=O)[C@H](C(C)(C)C)NC1=O [Compound 003] (Ac-K(Myristoyl)[Nva]C[Tle]YPT[Trp(7-aza)]EH[Trp(7-aza)][Chg]TC-NH2; linker 3-14 via mXylylene) |  | 1 to 100 |
| CCC[C@H](NC(=O)[C@H](Cc1c[nH]c2ncccc12)NC(=O)[C@H](NC(C)=O)[C@@H](C)O)C(=O)NC1CCC(=O)NCCCCCNC(=O)[C@H](Cc2ccc(O)cc2)NC(=O)[C@H](C(C)(C)C)NC(=O)CCSCc2cccc(c2)CSC[C@H](C(N)=O)NC(=O)[C@H]([C@@H](C)O)NC(=O)[C@H](C2CCCCC2)NC(=O)[C@H](Cc2ccc(O)cc2)NC1=O (stereo partly shown) [Compound 049] |  | 1000 to 12100 |
| CC(=O)N[C@H]1CSCc2cccc(c2)CSC[C@H](C(N)=O)NC(=O)[C@H]([C@@H](C)O)NC(=O)[C@](C)(C(C)C)NC(=O)[C@H](Cc2ccc(O)cc2)NC(=O)[C@H](C)NC(=O)[C@](C)(CCCN)NC(=O)[C@H](Cc2c[nH]c3ncccc23)NC(=O)[C@H]([C@@H](C)O)NC(=O)[C@@H]2CCCN2C(=O)[C@H](Cc2ccc(O)cc2)NC(=O)[C@H](C(C)(C)C)NC1=O [Compound 033] (Ac-C[Tle]YPT[Trp(7-aza)][αMeOrn]AY[αMeV]T[dC]-NH2; linker 1-12 via mXylylene) | 1 to 100 |  |

Continued, values first:

| IC50 (PCSK9) [nM] | IC50 [1] [nM] | SMILES |
| --- | --- | --- |
| 1 to 100 |  | CC(C)[C@]1(C)NC(=O)[C@H](Cc2ccc(O)cc2)NC(=O)[C@H](C)NC(=O)[C@](C)(CCCN)NC(=O)[C@H](Cc2c[nH]c3ncccc23)NC(=O)[C@H]([C@@H](C)O)NC(=O)[C@@H]2CCCN2C(=O)[C@H](Cc2ccc(O)cc2)NC(=O)[C@H](C(C)(C)C)NC(=O)CCSCc2cccc(c2)CSC[C@H](C(N)=O)NC(=O)[C@H]([C@@H](C)O)NC1=O [Compound 025] ([Mpa][Tle]YPT[Trp(7-aza)][αMeOrn]AY[αMeV]T[dC]-NH2; linker 1-12 via mXylylene) |
|  | 100 to 1000 | CCC[C@@H]1NC(=O)[C@H](Cc2c[nH]c3ncccc23)NC(=O)[C@H]([C@@H](C)O)NC(=O)[C@H](CCCCCN)NC(=O)[C@H](Cc2ccc(O)cc2)NC(=O)[C@H](C(C)(C)C)NC(=O)CCSCc2cccc(c2)CSC[C@@H](C(N)=O)NC(=O)[C@H]([C@@H](C)O)NC(=O)[C@H](CCC)NC(=O)[C@H](Cc2ccc(O)cc2)NC(=O)[C@H](CCC(=O)O)NC1=O [Compound 062] ([Mpa][Tle]Y[hLys]T[Trp(7-aza)][Nva]EY[Nva]TC-NH2; linker 1-12 via mXylylene) |
|  | 1000 to 12100 | CCC[C@@H]1NC(=O)[C@H](Cc2c[nH]c3ncccc23)NC(=O)[C@H]([C@@H](C)O)NC(=O)[C@@H]2CC(F)(F)CN2C(=O)[C@H](Cc2ccc(O)cc2)NC(=O)[C@H](C(C)(C)C)NC(=O)CCSCc2cccc(c2)CSC[C@@H](C(N)=O)NC(=O)[C@H]([C@@H](C)O)NC(=O)[C@H](CCC)NC(=O)[C@H](Cc2ccc(O)cc2)NC(=O)[C@H](CCC(=O)O)NC1=O [Compound 004] ([Mpa][Tle]Y[Pro(4,4-F2)]T[Trp(7-aza)][Nva]EY[Nva]TC-NH2; linker 1-12 via mXylylene) |
|  | 100 to 1000 | CCC[C@@H]1NC(=O)[C@H](Cc2c[nH]c3ncccc23)NC(=O)[C@H]([C@@H](C)O)NC(=O)[C@H](CNC(=N)N)NC(=O)[C@H](Cc2c[nH]c3ccc(F)cc23)NC(=O)[C@H](C(C)(C)C)NC(=O)[C@@H](NC(=O)[C@H](Cc2ccc(NC(=N)N)cc2)NC(C)=O)CSCc2cccc(c2)CSC[C@@H](C(N)=O)NC(=O)[C@H]([C@@H](C)O)NC(=O)[C@H](CCC)NC(=O)[C@H](Cc2ccc(O)cc2)NC(=O)[C@H](CCC(=O)O)NC1=O [Compound 093] (Ac-[Phe(4-guanidino)]C[Tle][Trp(5-F)][Agp]T[Trp(7-aza)][Nva]EY[Nva]TC-NH2; linker 2-13 via mXylylene) |
|  | 100 to 1000 | CCC[C@@H]1NC(=O)[C@H](Cc2c[nH]c3ncccc23)NC(=O)[C@H]([C@@H](C)O)NC(=O)[C@H](Cc2cnc[nH]2)NC(=O)[C@H](Cc2ccc(O)cc2)NC(=O)[C@H](C(C)(C)C)NC(=O)CCSCc2cccc(c2)CSC[C@H](C(N)=O)NC(=O)[C@H]([C@@H](C)O)NC(=O)[C@H](C2CCCCC2)NC(=O)[C@H](Cc2ccc(O)cc2)NC(=O)[C@H](CCC(=O)O)NC1=O [Compound 043] ([Mpa][Tle]YHT[Trp(7-aza)][Nva]EY[Chg]T[dC]-NH2; linker 1-12 via mXylylene) |
|  | 100 to 1000 | CCC[C@@H]1NC(=O)[C@H](Cc2c[nH]c3ncccc23)NC(=O)[C@H]([C@@H](C)O)NC(=O)[C@H](Cc2cnc[nH]2)NC(=O)[C@H](Cc2ccc(O)cc2)NC(=O)[C@H](C(C)(C)C)NC(=O)CCSCc2cccc(c2)CSC[C@@H](C(N)=O)NC(=O)[C@H]([C@@H](C)O)NC(=O)[C@H](CCO)NC(=O)[C@H](Cc2ccc(O)cc2)NC(=O)[C@H](CCC(=O)O)NC1=O [Compound 072] ([Mpa][Tle]YHT[Trp(7-aza)][Nva]EY[hSer]TC-NH2; linker 1-12 via mXylylene) |
|  | 100 to 1000 | CC(C)[C@]1(C)NC(=O)[C@H](Cc2ccc(O)cc2)NC(=O)[C@H](CCC(=O)O)NC(=O)C(C)(C)NC(=O)[C@H](Cc2c[nH]c3ncccc23)NC(=O)[C@H]([C@@H](C)O)NC(=O)[C@H](CCCCN)NC(=O)[C@H](Cc2ccc(O)cc2)NC(=O)[C@H](C(C)(C)C)NC(=O)CCSCc2cccc(c2)CSC[C@H](C(N)=O)NC(=O)[C@H]([C@@H](C)O)NC1=O [Compound 077] ([Mpa][Tle]YKT[Trp(7-aza)][Aib]EY[αMeV]T[dC]-NH2; linker 1-12 via mXylylene) |
